Patent US7745495B2, “Pyridine ketones with herbicidal effect” (Syngenta Crop Protection, Inc., priority 2004, dated 2010)

Legend:
Format in all cases: in vivo
[1] = system: Abutilon; assay: Pre-emergence herbicidal action; settings: rating 10=total damage, 0=no action; for Pre-emergent Herbicidal Activity: Abutilon: Table B3; for Pre-emergence herbicidal action: Abutilon: 250 g/ha, after 3 weeks
Description: (§1) Monocotyledonous and dicotyledonous test plants are sown in standard soil in plastic pots. […] The test plants are then grown in a greenhouse under optimum conditions. After a test duration of 3 weeks, the test is evaluated in accordance with a scale of ten ratings (10=total damage, 0=no action). Ratings of from 10 to 7 (especially from 10 to 8) indicate good to very good herbicidal action.

[2] = system: Amaranthus; assay: Pre-emergence herbicidal action; settings: rating 10=total damage, 0=no action; for Pre-emergent Herbicidal Activity: Amaranthus: Table B3; for Pre-emergence herbicidal action: Amaranthus: 250 g/ha, after 3 weeks
Description: as §1

[3] = system: Echinochloa; assay: Pre-emergence herbicidal action; settings: rating 10=total damage, 0=no action; for Pre-emergent Herbicidal Activity: Echinochloa: Table B3; for Pre-emergence herbicidal action: Echinochloa: 250 g/ha, after 3 weeks
Description: as §1

[4] = system: Corn; assay: Pre-emergent herbicidal activity on crop plant; settings: for Pre-emergent Herbicidal Activity: Corn: Table B3, crop plant, rating 10=total damage, 0=no action
Description: as §1
(§2) In the following Table B3, the pre-emergent herbicidal activity of compound H-14 according to the invention is compared with 4 compounds according to the prior art. All compounds are structurally identical except for the nature of the alkylene linker attached to the pyridine ring.

[5] = system: Soya; assay: Pre-emergent herbicidal activity on crop plant; settings: for Pre-emergent Herbicidal Activity: Soya: Table B3, crop plant, rating 10=total damage, 0=no action
Description: as §1, §2

[6] = system: Brachiaria; assay: Pre-emergent herbicidal activity; settings: Table B3, rating 10=total damage, 0=no action
Description: as §1, §2

[7] = system: Setaria; assay: Pre-emergent herbicidal activity; settings: Table B3, rating 10=total damage, 0=no action
Description: as §1, §2

[8] = system: Digitaria; assay: Pre-emergence herbicidal action; settings: 250 g/ha; after 3 weeks; rating 10=total damage, 0=no action
Description: as §1

[9] = system: Panicum; assay: Pre-emergence herbicidal action; settings: 250 g/ha; after 3 weeks; rating 10=total damage, 0=no action
Description: as §1

[10] = system: Chenopodium; assay: Pre-emergence herbicidal action; settings: 250 g/ha; after 3 weeks; rating 10=total damage, 0=no action
Description: (§3) Monocotyledonous and dicotyledonous test plants are sown in standard soil in plastic pots. Immediately after sowing, the test compounds, in the form of an aqueous suspension (prepared from a 25% wettable powder (Example F3, b) according to WO 97/34485) or in the form of an emulsion (prepared from a 25% emulsifiable concentrate (Example F1, c)), are applied by spraying a concentration corresponding to 125 g or 250 g of active ingredient/ha (500 liter of water/ha). The test plants are then grown in a greenhouse under optimum conditions. After a test duration of 3 weeks, the test is evaluated in accordance with a scale of ten ratings (10=total damage, 0=no action). Ratings of from 10 to 7 (especially from 10 to 8) indicate good to very good herbicidal action.

[11] = system: Stellaria; assay: Pre-emergence herbicidal action; settings: 250 g/ha; after 3 weeks; rating 10=total damage, 0=no action
Description: as §3

[12] = system: Abutilon; assay: Post-emergence herbicidal action; settings: 250 g/ha; 4- to 6-leaf stage; after about 18 days; rating 10=total damage, 0=no action
Description: (§4) In a greenhouse, monocotyledonous and dicotyledonous test plants are grown in standard soil in plastic pots and at the 4- to 6-leaf stage are sprayed with an aqueous suspension of the test compounds of formula I prepared from a 25% wettable powder (Example F3, b) according to WO 97/34485) or with an emulsion of the test compounds of formula I prepared from a 25% emulsifiable concentrate (Example F1, c) according to WO 97/34485), in a concentration corresponding to 125 g or 250 g of active ingredient/ha (500 liter of water/ha). The test plants are then grown on in a greenhouse under optimum conditions. After a test duration of about 18 days, the test is evaluated in accordance with a scale of ten ratings (10=total damage, 0=no action). Ratings of from 10 to 7 (especially from 10 to 8) indicate good to very good herbicidal action.

[13] = system: Chenopodium; assay: Post-emergence herbicidal action; settings: 250 g/ha; 4- to 6-leaf stage; after about 18 days; rating 10=total damage, 0=no action
Description: as §4

[14] = system: Digitaria; assay: Post-emergence herbicidal action; settings: 250 g/ha; 4- to 6-leaf stage; after about 18 days; rating 10=total damage, 0=no action
Description: as §4

[15] = system: Ipomea; assay: Post-emergence herbicidal action; settings: 250 g/ha; 4- to 6-leaf stage; after about 18 days; rating 10=total damage, 0=no action
Description: as §4

[16] = system: Panicum; assay: Post-emergence herbicidal action; settings: 250 g/ha; 4- to 6-leaf stage; after about 18 days; rating 10=total damage, 0=no action
Description: as §4

[17] = system: Setaria; assay: Post-emergence herbicidal action; settings: 250 g/ha; 4- to 6-leaf stage; after about 18 days; rating 10=total damage, 0=no action
Description: as §4

[18] = system: Sinapis; assay: Post-emergence herbicidal action; settings: 250 g/ha; 4- to 6-leaf stage; after about 18 days; rating 10=total damage, 0=no action
Description: as §4

[19] = system: Stellaria; assay: Post-emergence herbicidal action; settings: 250 g/ha; 4- to 6-leaf stage; after about 18 days; rating 10=total damage, 0=no action
Description: as §4

[20] = pre-emergent, 30 and 15 g/ha, result in words on Table B3

Compound | Pre-emergent Herbicidal Activity: Abutilon ([1]; 15 g/ha) | Pre-emergent Herbicidal Activity: Abutilon ([1]; 30 g/ha) | Pre-emergent Herbicidal Activity: Amaranthus ([2]; 15 g/ha) | Pre-emergent Herbicidal Activity: Amaranthus ([2]; 30 g/ha) | Pre-emergent Herbicidal Activity: Echinochloa ([3]; 30 g/ha) | Pre-emergence herbicidal action: Abutilon [1] | Pre-emergence herbicidal action: Amaranthus [2] | Pre-emergence herbicidal action: Digitaria [8] | Pre-emergence herbicidal action: Echinochloa [3] | Pre-emergence herbicidal action: Panicum [9] | Pre-emergence herbicidal action: Chenopodium [10] | Pre-emergence herbicidal action: Stellaria [11] | Post-emergence herbicidal action: Abutilon [12] | Post-emergence herbicidal action: Chenopodium [13] | Post-emergence herbicidal action: Digitaria [14] | Post-emergence herbicidal action: Ipomea [15] | Post-emergence herbicidal action: Panicum [16] | Post-emergence herbicidal action: Setaria [17] | Post-emergence herbicidal action: Sinapis [18] | Post-emergence herbicidal action: Stellaria [19] | other results
COCc1nc(C(F)(F)F)ccc1C(=O)C1C(=O)C2CCC(C2)C1=O (stereo not drawn) [B] | 8 | 9 | 6 | 8 | 10 | – | – | – | – | – | – | – | – | – | – | – | – | – | – | – | Pre-emergent Herbicidal Activity: Echinochloa ([3]; 15 g/ha): 9; Pre-emergent Herbicidal Activity: Corn ([4]; 15 g/ha): 1; Pre-emergent Herbicidal Activity: Corn ([4]; 30 g/ha): 1; Pre-emergent Herbicidal Activity: Soya ([5]; 15 g/ha): 6; Pre-emergent Herbicidal Activity: Soya ([5]; 30 g/ha): 8; Pre-emergent Herbicidal Activity: Brachiaria ([6]; 15 g/ha): 6; Pre-emergent Herbicidal Activity: Brachiaria ([6]; 30 g/ha): 9; Pre-emergent Herbicidal Activity: Setaria ([7]; 15 g/ha): 8; Pre-emergent Herbicidal Activity: Setaria ([7]; 30 g/ha): 9
COCCCc1nc(C(F)F)ccc1C(=O)C1C(=O)C2CCC(C)(C2)C1=O (stereo not drawn) [Compound H-1] | – | – | – | – | – | 9 | 9 | 9 | 9 | 9 | 10 | 7 | 9 | 8 | 9 | 9 | 9 | 8 | 8 | 8 | –
COCCCc1nc(C(F)F)ccc1C(=O)C1C(=O)C2CCCC(C2)C1=O (stereo not drawn) [Compound H-21] | – | – | – | – | – | 7 | 7 | 10 | 9 | 10 | 10 | 10 | 8 | 9 | 9 | 8 | 9 | 8 | 9 | 8 | –
COCCCCc1nc(C(F)(F)F)ccc1C(=O)C1C(=O)C2CCC(C2)C1=O (stereo not drawn) [Compound F] | 8 | 8 | 7 | 7 | 7 | – | – | – | – | – | – | – | – | – | – | – | – | – | – | – | Pre-emergent Herbicidal Activity: Corn ([4]; 15 g/ha): 0; Pre-emergent Herbicidal Activity: Corn ([4]; 30 g/ha): 0; phytotoxic effect on the crop plants (corn) [4, 20]: no phytotoxic effect; Pre-emergent Herbicidal Activity: Soya ([5]; 15 g/ha): 0; Pre-emergent Herbicidal Activity: Soya ([5]; 30 g/ha): 0; phytotoxic effect on the crop plants (soya) [5, 20]: no phytotoxic effect; Pre-emergent Herbicidal Activity: Brachiaria ([6]; 15 g/ha): 0; Pre-emergent Herbicidal Activity: Brachiaria ([6]; 30 g/ha): 6; Pre-emergent Herbicidal Activity: Setaria ([7]; 30 g/ha): 6
CCOCCCc1nc(C(F)(F)F)ccc1C(=O)C1C(=O)C2CCC(C2)C1=O (stereo not drawn) [Compound H-15] | – | – | – | – | – | 10 | 10 | 9 | 10 | 10 | 10 | 10 | 9 | 10 | 8 | 8 | 9 | 8 | 9 | 9 | –
COCCc1nc(C(F)(F)F)ccc1C(=O)C1C(=O)C2CCC(C2)C1=O (stereo not drawn) [A] | 9 | 9 | 7 | 7 | 9 | – | – | – | – | – | – | – | – | – | – | – | – | – | – | – | Pre-emergent Herbicidal Activity: Echinochloa ([3]; 15 g/ha): 4; Pre-emergent Herbicidal Activity: Corn ([4]; 15 g/ha): 0; Pre-emergent Herbicidal Activity: Corn ([4]; 30 g/ha): 0; Pre-emergent Herbicidal Activity: Soya ([5]; 15 g/ha): 2; Pre-emergent Herbicidal Activity: Soya ([5]; 30 g/ha): 5; Pre-emergent Herbicidal Activity: Brachiaria ([6]; 15 g/ha): 6; Pre-emergent Herbicidal Activity: Brachiaria ([6]; 30 g/ha): 7; Pre-emergent Herbicidal Activity: Setaria ([7]; 15 g/ha): 6; Pre-emergent Herbicidal Activity: Setaria ([7]; 30 g/ha): 7
COCCCc1nc(C(F)(F)F)ccc1C(=O)C1C(=O)C2CCC(C)(C2)C1=O (stereo not drawn) [Compound H-16] | – | – | – | – | – | 10 | 8 | 10 | 10 | 10 | 9 | 8 | 9 | 10 | 9 | 9 | 10 | 10 | 10 | 10 | –
CCC12CCC(C1)C(=O)C(C(=O)c1ccc(C(F)(F)F)nc1CCCOC)C2=O (stereo not drawn) [Compound H-17] | – | – | – | – | – | – | – | – | – | – | – | – | 9 | 8 | 7 | 7 | 8 | 8 | 9 | 9 | –
COC/C=C\c1nc(C(F)(F)F)ccc1C(=O)C1C(=O)C2CCC(C2)C1=O (stereo not drawn) [C] | 3 | 4 | 3 | 5 | 3 | – | – | – | – | – | – | – | – | – | – | – | – | – | – | – | Pre-emergent Herbicidal Activity: Echinochloa ([3]; 15 g/ha): 3; Pre-emergent Herbicidal Activity: Corn ([4]; 15 g/ha): 0; Pre-emergent Herbicidal Activity: Corn ([4]; 30 g/ha): 0; Pre-emergent Herbicidal Activity: Soya ([5]; 15 g/ha): 0; Pre-emergent Herbicidal Activity: Soya ([5]; 30 g/ha): 0; Pre-emergent Herbicidal Activity: Brachiaria ([6]; 15 g/ha): 0; Pre-emergent Herbicidal Activity: Brachiaria ([6]; 30 g/ha): 0; Pre-emergent Herbicidal Activity: Setaria ([7]; 15 g/ha): 2; Pre-emergent Herbicidal Activity: Setaria ([7]; 30 g/ha): 2
COCCCc1nc(C(F)F)ccc1C(=O)C1C(=O)C2CCC(CC2)C1=O (stereo not drawn) [Compound H-4] | – | – | – | – | – | 9 | 9 | 9 | 9 | 9 | 9 | 7 | 8 | 7 | 9 | 7 | 9 | 7 | 9 | 8 | –
COCCCc1nc(C(F)(F)F)ccc1C(=O)C1C(=O)C2CCCC(C2)C1=O (stereo not drawn) [Compound H-19] | – | – | – | – | – | – | – | – | – | – | – | – | 8 | 9 | 9 | 8 | 8 | 8 | 9 | 8 | –
